This passage reports T/C results from PubChem BioAssay AID330 (DTP/NCI, 2004).

Toxic doses and inconclusive results are not listed.

In the experiment the test system is P388 leukemia ip, CD2F1 mice, survival T/C. The experiment can be described thus: NCI In Vivo Anticancer Drug Screen. Data for tumor model P388 Leukemia (intraperitoneal) in CD2F1 (CDF1) mice. To be noted: endpoint: median survival time, higher = longer survival. The gist of the method: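 Mice carrying the transplanted tumor received test compound or vehicle. Survival was recorded in each group, and the value is the treated-group measurement divided by that of the vehicle-treated control group.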

Setting [1] is: dose: 50.0 mg/kg/injection, schedule: Q01DX009 (ip), vehicle: saline.
The mark [2] stands for this setting: dose: 100.0 mg/kg/injection, schedule: Q01DX009 (ip), vehicle: saline.
The mark [3] stands for this setting: dose: 200.0 mg/kg/injection, schedule: Q01DX009 (ip), vehicle: saline.
[4] abbreviates: dose: 12.5 mg/kg/injection, schedule: Q01DX009 (ip), vehicle: saline with Tween-80.
Setting [5] is: dose: 25.0 mg/kg/injection, schedule: Q01DX009 (ip), vehicle: saline with Tween-80.
The mark [6] stands for this setting: dose: 50.0 mg/kg/injection, schedule: Q01DX009 (ip), vehicle: saline with Tween-80.
[7] abbreviates: dose: 100.0 mg/kg/injection, schedule: Q01DX009 (ip), vehicle: saline with Tween-80.
Where [8] appears, read: dose: 50.0 mg/kg/injection, schedule: Q04DX003 (ip), vehicle: saline with Tween-80.
[9] abbreviates: dose: 100.0 mg/kg/injection, schedule: Q04DX003 (ip), vehicle: saline with Tween-80.
Setting [10] is: dose: 200.0 mg/kg/injection, schedule: Q01DX009 (ip), vehicle: saline with Tween-80.
The mark [11] stands for this setting: dose: 60.0 mg/kg/injection, schedule: Q01DX005 (ip), vehicle: Klucel (hydroxypropylcellulose) (HPC).
Where [12] appears, read: dose: 120.0 mg/kg/injection, schedule: Q01DX005 (ip), vehicle: Klucel (hydroxypropylcellulose) (HPC).
[13] abbreviates: dose: 240.0 mg/kg/injection, schedule: Q01DX005 (ip), vehicle: Klucel (hydroxypropylcellulose) (HPC).

Take `Nc1ccccc1-c1ccccc1[N+](=O)[O-]`: the T/C is 95 % of control under setting [1], 96 % of control under setting [2] and 95 % of control under setting [3].

Regarding `CCOC(Cn1nc(SC)nc1N)OCC`, the T/C is 108 % of control (dose: 100.0 mg/kg/injection, schedule: Q04DX002 (ip), vehicle: water); 104 % of control (dose: 200.0 mg/kg/injection, schedule: Q04DX002 (ip), vehicle: water); 109 % of control (dose: 400.0 mg/kg/injection, schedule: Q04DX002 (ip), vehicle: water).

With `O=C(O)c1ccc(SSc2ccc(C(=O)O)cc2)cc1`, the T/C was 97 % of control under setting [4], 106 % of control under setting [5], 103 % of control under setting [6] and 111 % of control under setting [7].

With `c1cnc2c3ccncc3c3nc(-c4ccncc4)[nH]c3c2c1`, the T/C (dose: 50.0 mg/kg/injection, schedule: Q01DX005 (ip), vehicle: Klucel (hydroxypropylcellulose) (HPC)) is 91 % of control; the T/C (dose: 100.0 mg/kg/injection, schedule: Q01DX005 (ip), vehicle: Klucel (hydroxypropylcellulose) (HPC)) was 88 % of control; the T/C (dose: 200.0 mg/kg/injection, schedule: Q01DX005 (ip), vehicle: Klucel (hydroxypropylcellulose) (HPC)) was 101 % of control.

`CN(C)C1C(=O)C(C(=O)NCNC(CO)(CO)CO)=C(O)C2(O)C(=O)C3=C(O)c4c(O)cccc4C(C)(O)C3CC12` (configuration not stated): the T/C is, setting by setting: (dose: 50.0 mg/kg/injection, schedule: Q01DX005 (ip), vehicle: saline) 92 % of control; (dose: 100.0 mg/kg/injection, schedule: Q01DX005 (ip), vehicle: saline) 101 % of control; (dose: 200.0 mg/kg/injection, schedule: Q01DX005 (ip), vehicle: saline) 100 % of control.

In the case of `COCCC1OCC(CCl)O1` (configuration not stated), the T/C (dose: 50.0 mg/kg/injection, schedule: Q01DX005 (ip), vehicle: saline with Tween-80) is 104 % of control; the T/C (dose: 100.0 mg/kg/injection, schedule: Q01DX005 (ip), vehicle: saline with Tween-80) was 99 % of control; the T/C (dose: 200.0 mg/kg/injection, schedule: Q01DX005 (ip), vehicle: saline with Tween-80) was 108 % of control.

Regarding `O=[N+]([O-])c1ccccc1CSc1ncnc2nc[nH]c12`, the T/C by setting is: under setting [8], 95 % of control; under setting [7], 90 % of control; under setting [9], 109 % of control; under setting [10], 100 % of control; (dose: 200.0 mg/kg/injection, schedule: Q04DX003 (ip), vehicle: saline with Tween-80) 104 % of control; (dose: 400.0 mg/kg/injection, schedule: Q01DX009 (ip), vehicle: saline with Tween-80) 118 % of control.

For the compound `Cc1ccc(C(O)(CNC2CCCCC2)c2ccccc2)cc1` (configuration not stated), the T/C runs as follows: (dose: 25.0 mg/kg/injection, schedule: Q01DX009 (ip), vehicle: saline sonified) 104 % of control; (dose: 50.0 mg/kg/injection, schedule: Q01DX009 (ip), vehicle: saline sonified) 104 % of control.

With `NC(=O)c1nc[nH]c1F`, the T/C reads like this: (dose: 6.25 mg/kg/injection, schedule: Q01DX009 (ip), vehicle: saline with Tween-80) 102 % of control; under setting [4], 102 % of control; under setting [5], 103 % of control; under setting [6], 104 % of control.

Take `COC(=O)C1(C(C)C)N=C(c2ccccc2)OO1` (configuration not stated): the T/C by setting is: under setting [5], 91 % of control; under setting [6], 100 % of control; under setting [7], 104 % of control.

With `CNC(=S)NNc1ccc(C)cc1`, the T/C runs as follows: (dose: 12.5 mg/kg/injection, schedule: Q01DX009 (ip), vehicle: other) 87 % of control; (dose: 25.0 mg/kg/injection, schedule: Q01DX009 (ip), vehicle: other) 90 % of control; (dose: 100.0 mg/kg/injection, schedule: Q01DX009 (ip), vehicle: other) 92 % of control; (dose: 200.0 mg/kg/injection, schedule: Q01DX009 (ip), vehicle: other) 101 % of control.

With `Cc1noc(NS(=O)(=O)c2ccc(NC(=O)NCCCl)cc2)c1C`, the T/C is, setting by setting: (dose: 30.0 mg/kg/injection, schedule: Q01DX005 (ip), vehicle: Klucel (hydroxypropylcellulose) (HPC)) 102 % of control; under setting [11], 98 % of control; under setting [12], 95 % of control; under setting [13], 97 % of control.

In the case of `CCOC(=O)CS(=O)(=O)CCCCCCS(=O)(=O)CC(=O)OCC`, the T/C under setting [1] is 103 % of control, the T/C under setting [2] was 91 % of control and the T/C under setting [3] was 94 % of control.

`CCC(=O)Nc1ncc([N+](=O)[O-])s1`: the T/C by setting is: under setting [5], 94 % of control; under setting [6], 86 % of control; under setting [10], 86 % of control.

`COc1ccc(C(=O)CC(=O)CCC(=O)Nc2cc(C)ccc2C)cc1`: the T/C runs as follows: (dose: 60.0 mg/kg/injection, schedule: Q01DX005 (ip), vehicle: saline with Tween-80) 101 % of control; (dose: 120.0 mg/kg/injection, schedule: Q01DX005 (ip), vehicle: saline with Tween-80) 105 % of control; (dose: 240.0 mg/kg/injection, schedule: Q01DX005 (ip), vehicle: saline with Tween-80) 97 % of control.

In the case of `COc1cc(O)c2c(-c3cc(O)ccc3O)cc(=O)oc2c1`, the T/C is 94 % of control under setting [11], 88 % of control under setting [12] and 96 % of control under setting [13].

For `CSc1ccc(OC(=O)Nc2ccc(Cl)c(Cl)c2)c(C)c1`, the T/C by setting is: (dose: 50.0 mg/kg/injection, schedule: Q01DX009 (ip), vehicle: saline + alcohol) 87 % of control; (dose: 100.0 mg/kg/injection, schedule: Q01DX009 (ip), vehicle: saline + alcohol) 87 % of control; (dose: 200.0 mg/kg/injection, schedule: Q01DX009 (ip), vehicle: saline + alcohol) 95 % of control.

In the case of `N#Cc1ccc(OC(=O)Nc2ccc(Br)cc2)cc1`, the T/C is 115 % of control under setting [11], 114 % of control under setting [12] and 108 % of control under setting [13].

Turning to `N#Cc1c(-c2ccc(Cl)cc2)c(-c2ccc(Cl)cc2)nn(CCCl)c1=O`, the T/C runs as follows: (dose: 100.0 mg/kg/injection, schedule: Q04DX002 (ip), vehicle: saline with Tween-80) 91 % of control; (dose: 200.0 mg/kg/injection, schedule: Q04DX002 (ip), vehicle: saline with Tween-80) 100 % of control; (dose: 400.0 mg/kg/injection, schedule: Q04DX002 (ip), vehicle: saline with Tween-80) 91 % of control.

Turning to `Nc1nc2ccc(CNc3ccc(C(=O)NC(CCC(=O)O)C(=O)O)cc3)nc2c(=O)[nH]1` (configuration not stated), the T/C runs as follows: under setting [8], 102 % of control; under setting [9], 155 % of control.

Take `CC(C)(C)SC(=O)c1ccco1`: the T/C under setting [6] was 118 % of control and the T/C under setting [7] was 114 % of control.
